# Assay results from the supplement of paper PMC10307832.
# Columns and labels:
# Test in all cases: relative viability (nuclei count vs DMSO), 5 days (fraction); higher = more cells survive
# [1] = compound: CCOC(=O)CCNc1cc(N2CCc3ccccc3CC2)nc(-c2ccccn2)n1 [GSK-J4] + CCNC(=O)c1noc(-c2cc(C(C)C)c(O)cc2O)c1-c1ccc(CN2CCOCC2)cc1 [Luminespib] (partner 0.01 µM)
# Summary of the method: (§1)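 Nuclei were stained with Hoechst during a one-step fixation (final 0.05% Triton X-100, 1% formaldehyde, 1 ug/ml Hoechst) carried out 5 days after dosing, then counted on 4× images. The cells, lung cancer lines in 1536-well plates, had been dosed by pin tool the day after seeding with one drug alone or a fixed anchor-drug dose plus five library-drug doses (not always all listed) in √10 steps. Relative viability is the nuclei count in treated wells divided by that in vehicle wells, and each value is the median of duplicate plates.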
# [2] = compound: CCOC(=O)CCNc1cc(N2CCc3ccccc3CC2)nc(-c2ccccn2)n1 [GSK-J4] + O=C(c1cc(Cc2n[nH]c(=O)c3ccccc23)ccc1F)N1CCN(C(=O)C2CC2)CC1 [Olaparib] (partner 8 µM)
# Summary of the method: as §1
# [3] = compound: CN1CCC(CC1)OC2=CC(=C(C=C2)NC3=NC=C4C(=N3)N(C(=O)N4C)C5CCCC5)OC [AZ3146] + CS(=O)(=O)N1CCN(Cc2cc3nc(-c4cccc5[nH]ncc45)nc(N4CCOCC4)c3s2)CC1 [Pictilisib] (partner 1 µM)
# Summary of the method: as §1
# [4] = compound: CN1CCC(CC1)OC2=CC(=C(C=C2)NC3=NC=C4C(=N3)N(C(=O)N4C)C5CCCC5)OC [AZ3146] + NC(=O)Nc1cc(-c2cccc(F)c2)sc1C(=O)N[C@H]1CCCNC1 [AZD7762] (partner 0.2 µM)
# Summary of the method: as §1
Cell Line,relative viability ([1]; first compound 0.5 µM),relative viability ([1]; first compound 1.581 µM),relative viability ([1]; first compound 15.81 µM),relative viability ([1]; first compound 50 µM),relative viability ([2]; first compound 0.5 µM),relative viability ([2]; first compound 1.581 µM),relative viability ([2]; first compound 5 µM),relative viability ([2]; first compound 15.81 µM),relative viability ([2]; first compound 50 µM),relative viability ([3]; first compound 0.08 µM),relative viability ([3]; first compound 0.253 µM),relative viability ([3]; first compound 0.8 µM),relative viability ([3]; first compound 2.53 µM),relative viability ([3]; first compound 8 µM),relative viability ([1]; first compound 5 µM),relative viability ([4]; first compound 0.08 µM),relative viability ([4]; first compound 0.253 µM),relative viability ([4]; first compound 0.8 µM),relative viability ([4]; first compound 2.53 µM),relative viability ([4]; first compound 8 µM)
NCI-H2009,1.05,0.918,0.938,0.407,0.603,0.638,0.556,0.593,0.449,0.891,0.962,0.886,0.917,0.605,–,–,–,–,–,–
COR-L 105,0.624,0.58,0.633,1.01,0.701,–,0.641,0.672,0.764,0.38,0.406,0.419,0.356,0.237,0.702,–,–,–,–,–
NCI-H1623,0.556,0.427,0.432,0.283,–,–,–,–,–,–,–,–,–,–,0.677,–,–,–,–,–
HCC-827,0.566,0.629,0.405,0.526,0.622,0.65,0.767,0.589,0.36,0.965,0.971,0.987,1.2,0.928,0.832,0.154,0.17,0.188,0.212,0.213
EMC-BAC-2,1.21,1.09,1.09,0.676,0.403,0.461,0.407,0.444,0.391,0.524,0.56,0.564,0.607,0.597,0.985,0.94,1.09,1.25,0.998,1.07
NCI-H1703,–,–,–,–,0.385,0.576,0.372,0.362,0.422,0.254,0.258,0.231,0.228,0.234,–,0.104,0.164,0.106,–,0.183
NCI-H2170,0.576,0.668,0.362,0.609,0.533,0.538,0.652,0.536,0.391,0.297,0.315,0.327,0.297,0.243,0.81,0.85,0.889,0.871,0.814,0.713
NCI-H1755,0.355,0.387,0.326,0.383,0.853,0.754,0.841,0.859,0.687,0.421,0.433,0.359,0.441,0.442,0.504,0.502,0.482,0.455,0.445,0.519
ChaGo-K-1,0.56,0.627,0.607,0.45,0.384,–,0.441,0.354,0.275,0.746,0.668,0.645,0.824,0.596,0.594,0.739,0.91,0.865,0.833,0.733
EKVX,0.824,0.725,0.755,0.811,0.867,–,0.859,0.681,0.703,0.417,0.433,0.259,0.407,0.545,0.977,0.506,0.773,0.541,0.787,0.824
HCC-78,–,–,–,–,0.688,0.774,1.1,0.656,0.742,–,0.23,0.225,0.223,0.211,–,–,0.577,0.57,0.53,0.717
A-427,0.866,–,0.681,0.311,0.714,0.701,–,0.66,0.295,0.826,0.626,0.65,0.519,0.675,0.64,0.622,0.665,0.56,0.527,0.508
NCI-H3122,0.0789,0.067,0.0946,0.121,0.539,0.578,0.668,0.575,0.504,0.613,0.614,0.555,0.639,0.684,0.119,1.01,0.933,0.966,1.06,0.973
NCI-H1563,0.513,0.484,0.502,0.526,–,–,–,–,–,0.636,0.641,0.729,0.685,0.604,0.477,–,–,–,–,–
SK-MES-1,0.695,0.731,0.686,0.37,0.675,0.641,0.727,0.626,0.22,0.349,0.376,0.388,0.371,0.373,0.718,–,–,–,–,–
SW 1573,0.199,0.0964,0.213,0.148,0.471,0.365,0.486,0.354,0.153,0.457,0.539,0.507,0.633,0.443,0.268,–,–,–,–,–
NCI-H2347,0.529,0.405,–,0.435,0.587,0.597,0.554,0.675,0.437,0.604,0.542,0.654,1.12,0.422,0.341,0.577,0.934,0.649,0.746,0.677
LC-2-ad,0.851,0.889,0.886,0.54,0.69,0.643,0.672,0.701,0.55,0.398,0.483,0.425,0.579,0.41,0.701,0.75,0.841,0.822,0.886,0.78
HCC-15,0.232,–,0.174,0.268,0.702,0.632,0.644,0.644,0.424,0.721,0.773,0.765,0.737,0.728,0.304,1.27,1.1,1.33,1.1,1.16
PC-3 [JPC-3],0.698,0.552,0.584,0.439,1.06,1.06,0.996,1.07,0.801,0.669,0.651,0.766,0.8,0.681,0.735,0.734,–,0.797,0.813,0.754
NCI-H1915,0.824,0.791,0.657,0.613,0.279,0.229,–,0.224,0.257,0.748,0.911,1.11,1,1.07,–,0.673,0.714,0.75,0.729,0.745

Cell Line,relative viability ([1]; first compound 0.5 µM),relative viability ([1]; first compound 1.581 µM),relative viability ([1]; first compound 15.81 µM),relative viability ([1]; first compound 50 µM),relative viability ([2]; first compound 0.5 µM),relative viability ([2]; first compound 1.581 µM),relative viability ([2]; first compound 5 µM),relative viability ([2]; first compound 15.81 µM),relative viability ([2]; first compound 50 µM),relative viability ([3]; first compound 0.08 µM),relative viability ([3]; first compound 0.253 µM),relative viability ([3]; first compound 0.8 µM),relative viability ([3]; first compound 2.53 µM),relative viability ([3]; first compound 8 µM),relative viability ([1]; first compound 5 µM),relative viability ([4]; first compound 0.08 µM),relative viability ([4]; first compound 0.253 µM),relative viability ([4]; first compound 0.8 µM),relative viability ([4]; first compound 2.53 µM),relative viability ([4]; first compound 8 µM)
HOP-62,0.877,0.937,0.794,0.396,0.394,0.333,0.426,0.491,0.28,0.561,0.719,0.627,0.895,0.548,0.917,0.276,0.61,0.485,0.582,0.791
LCLC-103H,0.96,0.917,0.882,0.486,0.8,0.685,0.776,0.654,0.646,0.548,0.672,0.557,0.492,0.555,1.01,0.623,0.714,0.767,0.789,0.831
NCI-H460,0.0274,0.0313,0.0363,0.0333,0.384,–,–,0.433,0.343,0.293,0.323,0.297,0.416,0.461,0.03,0.461,0.744,0.522,0.546,0.559
SK-LU-1,0.214,0.195,0.201,0.212,0.433,0.465,0.429,0.428,0.309,0.571,0.507,0.693,0.651,0.535,0.166,–,–,–,–,–
Calu-6,–,–,–,–,0.559,0.567,0.587,0.53,0.608,0.871,0.984,0.865,0.859,0.515,–,–,–,–,–,–
NCI-H2228,0.189,0.124,0.143,0.124,0.555,0.608,0.583,0.728,0.903,0.412,0.306,0.349,0.282,0.314,0.152,–,–,–,–,–
COR-L23,0.581,0.647,0.68,0.514,0.279,0.311,–,0.306,0.293,0.643,0.922,0.824,0.77,0.667,–,–,–,–,–,–
NCI-H2023,0.73,0.685,0.76,0.472,0.453,0.413,0.472,0.379,0.348,0.241,0.285,0.19,0.265,0.202,0.862,–,–,–,–,–
NCI-H661,0.911,0.902,0.904,0.6,0.704,0.67,0.7,0.559,0.461,0.489,0.417,0.34,0.463,0.446,0.929,–,–,–,–,–
EBC-1,–,–,–,–,0.603,0.567,0.676,0.655,0.453,0.366,0.412,0.351,0.388,0.244,–,–,–,–,–,–
NCI-H522,1.22,0.944,0.612,0.587,0.597,0.552,–,0.531,0.409,–,–,–,–,–,1.2,0.803,0.57,0.807,0.698,0.577
NCI-H1648,–,–,–,–,0.869,–,1.44,–,0.793,–,–,–,–,–,–,–,–,0.863,0.757,0.624
NCI-H1650,0.17,0.222,0.153,0.231,0.852,0.739,0.871,0.639,0.509,0.52,0.671,0.53,0.535,0.493,0.228,–,–,–,–,–
NCI-H2342,0.736,0.783,0.951,0.858,0.368,0.427,0.501,0.431,0.476,–,–,–,–,–,0.865,0.472,0.481,0.489,0.521,0.529
NCI-H1299,–,–,–,–,0.96,0.916,0.878,0.929,0.772,0.786,0.976,0.677,0.734,0.264,–,–,–,–,–,–
SW 900,0.195,0.156,0.177,0.154,0.903,0.935,1.15,0.797,0.549,–,–,–,–,–,0.155,0.527,–,0.59,0.767,0.519
IA-LM,–,–,–,–,0.872,0.9,0.874,0.706,0.169,0.306,0.425,0.354,0.381,0.225,–,–,–,–,–,–
A549,–,–,–,–,0.32,–,0.29,0.31,0.392,0.475,0.503,0.483,0.404,0.139,–,–,–,–,–,–
HCC-366,–,–,–,–,0.362,0.308,–,0.37,0.285,0.233,0.133,0.138,0.146,0.191,–,0.212,0.288,0.263,0.203,0.112
NCI-H520,0.215,0.242,0.194,0.197,0.32,0.278,0.354,0.332,0.29,0.255,0.287,0.303,0.284,0.31,0.207,–,–,–,–,–
